Measurements reported in publication PMC9964544, “Evidence of Insulin-Sensitizing and Mimetic Activity of the Sesquiterpene Quinone Avarone, a Protein Tyrosine Phosphatase 1B and Aldose Reductase Dual Targeting Agent from the Marine Sponge Dysidea avara” (Pharmaceutics, 2023).

Key:
[1] = molecular target: T1, human recombinant AKR1B1 (Homo sapiens, UniProt P15121); assay: AKR1B1 inhibition assay with L-idose as substrate, NADPH oxidation (IC50); assay type: biochemical; conditions: 10 mU AKR1B1, 1.6 mM L-idose, 37 °C; IC50 ± SD
T1 construct: made in house
Method: The purification of human recombinant AKR1B1 was performed as previously described. […] The purified enzyme, stored at −80 °C in 10 mM sodium phosphate buffer pH 7.0 containing 2 mM DTT and 30% (w/v) glycerol, was extensively dialyzed against 10 mM sodium phosphate buffer pH 7.0 before use. […] The fractions containing PTP1B were collected, concentrated, and injected into a Superdex G75 column equilibrated with Tris-HCl buffer pH 8.0 containing 150 mM NaCl and 1 mM mercaptoethanol. The fractions containing PTP1B were collected and concentrated; the purity of preparation was evaluated using SDS-PAGE. The PTP1B preparation was split into fractions of 0.5 mL volume; each fraction was stored at −80 °C.
The standard assay mixture (final volume 0.7 mL) was contained in 0.25 M sodium phosphate buffer pH 6.8, 0.18 mM NADPH, 0.4 M ammonium sulfate, 0.5 mM EDTA, and 4.7 mM GAL. One unit of enzyme activity is the amount of enzyme that catalyzes the conversion of 1 µmol of substrate/min in the above assay conditions. The same assay conditions were adopted in the inhibition studies using L-idose as the substrate at the indicated concentrations. PTP1B activity was determined using p-nitrophenylphosphate (pNPP) as the synthetic substrate. The pNPP was dissolved in 0.075 M ββ-dimethylglutarate buffer, pH 7.0, containing 1 mM dithiothreitol. Each assay was carried out at 37 °C in 1 mL of assay buffer. The reactions were started by diluting an aliquot of PTP1B preparation in the assay buffer; after 30 min, the reactions were stopped by adding 2 mL of 0.2 M KOH solution. The amount of p-nitrophenol released was determined spectrophotometrically, reading the absorbance of solutions at 400 nm (ε400nm = 18 mM^−^1cm^−^1).

[2] = system: C2C12 cells; assay: Akt phosphorylation in C2C12 cells by Western blot; assay type: cell-based; conditions: 30 min, serum-starved C2C12
Method: To evaluate the impact of avarone (2) on the insulin signaling pathway, C2C12 cells were plated on P35 dishes and grown until 70% confluence. Then, cells were washed with phosphate-buffered saline (PBS) and incubated for 24 h in the presence of a starvation medium (DMEM high glucose containing 2 mM glutamine, 100 U/mL of penicillin, and 100 μg/mL of streptomycin). After this time, cells were stimulated for 30 min with 10 nM insulin (Humulin R, Ely Lilly, Italy) with avarone (2) or the insulin-avarone combination. […] Phosphorylation levels of the insulin receptor β chain and of the kinase Akt were evaluated using specific antibodies: IR β subunit, clone CT-3 (MABS65) was from Santa Cruz Biotechnology (Santa Cruz, CA, USA); pIR β subunit, Y1162/1163 (sc-25103-R) was from Merck-Millipore (Burlington, MA, USA). […] Quantitation of the images obtained was carried out using iBright Analysis Software (Thermo Fisher Scientific 168 Third Avenue Waltham, MA, USA, 02451). Glucose uptake was evaluated as previously described. […] Intrinsic and 2-NBDG-derived cell fluorescences were determined using a flow cytometer (FACSCanto II, BD Biosciences, San Jose, CA, USA). […] Quantitative analysis was carried out using FlowJo software (FlowJo^TM v10. BD FlowJo™ Software for Windows Version 10. Ashland, OR: Becton, Dickinson and Company; 2021). […]

IC50 [1]: 78 ± 17 nM
Compound: CC1=CCC[C@H]2[C@](C)(CC3=CC(=O)C=CC3=O)[C@@H](C)CC[C@]12C [avarone (2), avarone]
Akt phosphorylation levels, insulin-avarone combination ([2]; 25 µM avarone + 10 nM insulin): values higher than those observed after treatment with insulin alone | Akt phosphorylation levels ([2]; 25 µM avarone alone): increase in Akt phosphorylation levels similar to that induced by insulin
